Patent US20110070597A1, “Thin-Film Passive Samplers for Detection of Hydrophobic Organic Contaminants and Estrogenicity in Various Environments” (UNIVERSITY OF CONNECTICUT, priority 2009, published 2011)

Type: physicochemical
Source text: The polymer coated glass samplers (POG) and the organic rapid equilibrating (ORE) samplers, 10 and 20, both consisting of a thin film (on the order of ˜1-2 μm) of EVA, were calibrated by experimental determination of EVA-Water partition coefficients and sampling rates. The ORE is comprised of a 1.4 μm EVA coating on a 5.1×7.6 cm titanium plate, while the POG utilizes a thin-film of EVA on a glass fiber filter.
A closed system experiment was used to calibrate the POG and ORE devices. Sampling rates and equilibration times were determined for fourteen PBDE congeners. EVA-Water partitioning coefficients (KEVA-W) were experimentally determined for 5 BDE congeners. A Log KEVA-W−Log KOW (Octanol-Water partitioning coefficient) plot was constructed and used to define Log KEVA-W partitioning coefficients for the 14 BDE congeners examined. Values ranged from 6.39 to 10.6. The experimental design was successful in parameterizing the desired constants. In sum, both samplers were successfully calibrated.
A dichloromethane rinsed 20 gallon fish tank was employed for the tank deployment experimental. Three POGs and three OREs were suspended from a stainless steel frame proximate the top of the tank.
Once dry, the tank was filled with artificial seawater comprising sodium chloride, sodium bicarbonate, magnesium sulfate, and high purity Milli-Q water. A handheld multiparameter instrument (YSI-556) was used to confirm salinity (31 parts per thousand), dissolved oxygen (0.19 mM), and temperature (20° C.) prior to starting the experiment. The tank was fit with a plexiglass lid sealed with polytetrafluoroethylene (PTFE; i.e., Teflon®) and duct tape.
The tank was spiked with 0.2 mL of the PBDE Predominant Congener Mixture in n-nonane from Cambridge Isotope laboratories and allowed to equilibrate for 48 hours. Samplers were removed from refrigeration and allowed to equilibrate to room temperature. 400 mL of water was taken to establish the initial concentration. Seven sets of three samplers were added to the tank. The tank was secured with a lid, PTFE and duct tape, as described above. Four hundred milliliter aliquots of tank water and one sampler set were removed at the following time intervals: 1 hr, 2 hrs, 6 hrs, 12 hrs, 3 days, 12 days, and 32 days. The tank was open to the air in the fume hood for less than 4 minutes during each sampling period. After removal, each sampler set was wrapped in pre-cleaned aluminum foil and placed frozen in an airtight bag at −20° C. until extraction and analysis. Water-side 400 mL aliquots were frozen at −20° C. until extraction and analysis.
The POGs and OREs were extracted for analysis of PBDE concentration.
Extracts were analyzed for BDE congeners 17, 28, 47, 66, 71, 85, 99, 100, 138, 153, 154, 183, 190, and 209 by gas chromatography-mass spectrometry (GC/MS). Masses 79 (PBDEs) and 414 (Mirex) were used for quantification with Masses 81 (PBDEs), 487, 486 (DecaBDE), and 412 (Mirex) acting as confirmation ions. Extracts were identified and quantified by comparison with known concentrations of prepared standard solutions.
Sampling rates were calculated experimentally using Equation 2. The sampling rates varied between sampler types. The differences in sampling rates were likely due to variations in the thickness and heterogeneity versus homogeneity of the thin film coating on the respective plates. Sampling rates (RS(s)) were calculated at 1, 2, or 6 hrs depending upon the shape of the uptake curve.

SMILES	LOG KEVA-W (EVA-water partition coefficient) ORE	LOG KEVA-W (EVA-water partition coefficient) POG
Brc1ccc(Oc2ccc(Br)cc2Br)cc1 [BDE 28]	6.38 ± 0.10	5.90 ± 0.06
Brc1ccc(Oc2c(Br)cccc2Br)cc1Br [BDE 71]	6.67 ± 0.02	6.24 ± 0.05
Brc1ccc(Oc2ccccc2Br)c(Br)c1 [BDE 17]	6.40 ± 0.08	6.01 ± 0.07
Brc1ccc(Oc2ccc(Br)cc2Br)c(Br)c1 [BDE 47]	6.79 ± 0.10	6.43 ± 0.07
Brc1ccc(Oc2ccc(Br)c(Br)c2)c(Br)c1 [BDE 66]	6.66 ± 0.11	6.25 ± 0.07
